In the assay the target is T1, MMP-12 (Homo sapiens, UniProt P39900).
T1 construct: In regard to MMP-12, catalytic domain(^100Phe˜^263Gly) was amplified with RT-PCR; His-tag; enterokinase digestion-site; made in house
The assay can be described thus: Assay for inhibitory activities on MMPs (fluorogenic MOCAc peptide substrate): MMP-12. The assay is classed as biochemical. As to conditions: catalytic domain 100Phe-263Gly. On the procedure: In regard to MMP-12, catalytic domain(^100Phe˜^263Gly) was amplified with RT-PCR from Human Placenta Total RNA. This was cloned in Escherichia. coli expression vector pTrc99AHE inserted with His-tag sequence and enterokinase digestion-site, induced and expressed by IPTG (Isopropyl-β-D-thiogalactopyranoside) and expressed in a insoluble fraction. Isolation of MMP-12 from an insoluble fraction was carried out by dissolving in modifier (6M urea) by a usual method and purification with metal chelate chromatography (Ni Chelateing Sepharose). And then removing modifier (6M urea) with dialysis and refolding of the enzyme spontaneously gave activated MMP-12.
The enzymatic activity on MMPs was analyzed by the method described in “C. Graham Knight, Frances Willenbrock and Gillian Murphy: A novel coumarin-labelled peptide for sensitive continuous assays of the matrix metalloproteinases: FEBS LETT., 296, (1992), 263-266”. The substrate: MOCAc-Pro-Leu-Gly-Leu-A2Pr(DNP)-Ala-Arg-NH2 was purchased from Peptide Institute, Inc., Osaka, Japan. The measurement of the inhibitory activities (IC50) was carried out by the following four methods; • (A) Reaction with substrate, enzyme (MMPs) and inhibitor • (B) Reaction with substrate and inhibitor, without enzyme • (C) Reaction with substrate and enzyme (MMPs), without inhibitor • (D) Reaction with substrate only IC50 values were calculated by using the following formula and each fluorescence values of above four methods (A to D).
The value of inhibitory activity against MMP-2, MMP-8, MMP-9, MMP-12, and MMP-13 measured by above mentioned methods are shown in Table 36, 37, 38, 39, and 40 respectively.

T1 sequence (P39900 100-263): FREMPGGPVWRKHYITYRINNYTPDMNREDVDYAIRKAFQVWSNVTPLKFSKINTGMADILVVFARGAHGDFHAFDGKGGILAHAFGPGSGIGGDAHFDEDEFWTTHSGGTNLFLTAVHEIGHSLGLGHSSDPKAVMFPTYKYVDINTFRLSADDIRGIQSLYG

`CC(C)[C@H](NS(=O)(=O)c1ccc(-c2cc(-c3ccc(Cl)cc3)no2)cc1)C(=O)O` [Example A-23] registered a concentration for half-maximal inhibition (IC50) of 0.00086 µM.
As for `CC(C)C[C@H](NS(=O)(=O)c1ccc(-c2cc(-c3ccc(C(F)(F)F)cc3)on2)cc1)C(=O)O` [Example C-73], the figure is 0.000251 µM.
Molecule `CC(C)[C@@H](NS(=O)(=O)c1ccc(-c2cc(-c3ccc(Br)cc3)no2)cc1)C(=O)O` [Example A-24] gave a concentration for half-maximal inhibition (IC50) of 0.000806 µM. Against the preceding molecule, the IC50 is about 3.2-fold higher.
In the case of `CCCc1ccc(-c2cc(-c3ccc(S(=O)(=O)N[C@@H](CC(C)C)C(=O)O)cc3)no2)cc1` [Example C-58] it was 0.000216 µM; in that of `CC(C)C[C@H](NS(=O)(=O)c1ccc(-c2cc(-c3ccc(C(F)(F)F)cc3)no2)cc1)C(=O)O` [Example A-63], 0.000584 µM; in that of `CC(C)C[C@H](NS(=O)(=O)c1ccc(-c2cc(-c3ccc(Cl)cc3)no2)cc1)C(=O)O` [Example A-65], 0.000492 µM.
In the case of `CC(C)[C@H](NS(=O)(=O)c1ccc(-c2cc(-c3ccc(Cl)c(F)c3)no2)cc1)C(=O)O` [Example A-41] it was 0.00047 µM; in that of `CCC(C)[C@H](NS(=O)(=O)c1ccc(-c2cc(-c3ccc(Br)cc3)on2)cc1)C(=O)O` (some centres unmarked) [Example C-103], 0.000177 µM; in that of `CSc1ccc(-c2cc(-c3ccc(S(=O)(=O)N[C@@H](CC(C)C)C(=O)O)cc3)no2)cc1` [Example C-62], 0.00029 µM.
As for `CCC(C)[C@H](NS(=O)(=O)c1ccc(-c2cc(-c3ccc(Cl)cc3)on2)cc1)C(=O)O` (some centres unmarked) [Example C-107], the figure is 0.000257 µM; as for `CCC(C)[C@H](NS(=O)(=O)c1ccc(-c2cc(-c3ccc(C)cc3)on2)cc1)C(=O)O` (some centres unmarked) [Example C-94], 0.000256 µM.
In turn, `CCC(C)[C@H](NS(=O)(=O)c1ccc(-c2cc(-c3ccc(Cl)c(F)c3)no2)cc1)C(=O)O` (some centres unmarked) [Example A-104] gave an IC50 of 0.000379 µM.
In the case of `CCc1ccc(-c2cc(-c3ccc(S(=O)(=O)N[C@@H](C)C(=O)O)cc3)no2)cc1` [Example C-3] it was 0.000547 µM.
Molecule `CC(C)[C@H](NS(=O)(=O)c1ccc(-c2cc(-c3ccc(F)c(F)c3)on2)cc1)C(=O)O` [Example C-50] returned a half-inhibitory concentration (IC50) of 0.000754 µM.
In the case of `O=C(O)C[C@@H](NS(=O)(=O)c1ccc(-c2cc(-c3ccc(Cl)c(F)c3)on2)cc1)C(=O)O` [Example C-117] it was 0.000967 µM; in that of `CC(C)[C@@H](NS(=O)(=O)c1ccc(-c2cc(-c3ccc(Cl)c(F)c3)no2)cc1)C(=O)O` [Example A-40], 0.000861 µM; in that of `Cc1ccc(-c2cc(-c3ccc(S(=O)(=O)N[C@@H](C(=O)O)C(C)(C)C)cc3)no2)cc1` [Example C-109], 0.000951 µM.
In the case of `Cc1ccc(-c2cc(-c3ccc(S(=O)(=O)N[C@H](C(=O)O)C(C)C)cc3)no2)cc1` [Example C-9] it was 0.000409 µM.
In the case of `CC(C)[C@@H](NS(=O)(=O)c1ccc(-c2cc(-c3ccc(F)c(F)c3)on2)cc1)C(=O)O` [Example C-49] it was 0.000834 µM; in that of `CC(C)[C@H](NS(=O)(=O)c1ccc(-c2cc(-c3ccc(C(F)(F)F)cc3)on2)cc1)C(=O)O` [Example C-28], 0.000209 µM; in that of `CC(C)C[C@H](NS(=O)(=O)c1ccc(-c2cc(-c3ccc(Cl)c(F)c3)no2)cc1)C(=O)O` [Example A-81], 0.000357 µM.
For `CCc1ccc(-c2cc(-c3ccc(S(=O)(=O)N[C@@H](CC(C)C)C(=O)O)cc3)no2)s1` [Example C-77], the IC50 came out at 0.000676 µM. Compared with the last molecule, the IC50 is about 1.9-fold higher.
As for `COc1ccc(-c2cc(-c3ccc(S(=O)(=O)N[C@@H](C(=O)O)C(C)C)cc3)on2)cc1F` [Example A-38], the figure is 0.000908 µM; as for `Cc1ccc(-c2cc(-c3ccc(S(=O)(=O)N[C@@H](CC(C)C)C(=O)O)cc3)on2)cc1` [Example A-61], 0.00081 µM; as for `Cc1ccc(-c2cc(-c3ccc(S(=O)(=O)N[C@@H](CC(C)C)C(=O)O)cc3)no2)cc1` [Example C-54], 0.000343 µM.
In the case of `CC(C)C[C@H](NS(=O)(=O)c1ccc(-c2cc(-c3ccc(Cl)cc3)on2)cc1)C(=O)O` [Example C-68] it was 0.000295 µM.
`COc1ccc(-c2cc(-c3ccc(S(=O)(=O)N[C@@H](CC(C)C)C(=O)O)cc3)no2)cc1` [Example C-64] showed an IC50 of 0.000432 µM.
In the case of `COc1ccc(-c2cc(-c3ccc(S(=O)(=O)N[C@H](C(=O)O)C(C)C)cc3)on2)cc1F` [Example A-39] it was 0.000708 µM; in that of `CC(C)[C@@H](NS(=O)(=O)c1ccc(-c2cc(-c3ccc(C(F)(F)F)cc3)no2)cc1)C(=O)O` [Example A-20], 0.000723 µM; in that of `CCc1ccc(-c2cc(-c3ccc(S(=O)(=O)N[C@@H](CC(C)C)C(=O)O)cc3)no2)cc1` [Example C-56], 0.000289 µM.
As for `Cc1ccc(-c2cc(-c3ccc(S(=O)(=O)N[C@@H](CC(C)C)C(=O)O)cc3)no2)cc1F` [Example C-84], the figure is 0.000245 µM; as for `CC(C)[C@H](NS(=O)(=O)c1ccc(-c2cc(-c3ccc(Cl)cc3)on2)cc1)C(=O)O` [Example C-21], 0.000336 µM; as for `COc1ccc(-c2cc(-c3ccc(S(=O)(=O)N[C@H](CC(=O)O)C(=O)O)cc3)no2)cc1F` [Example C-118], 0.000904 µM.
In the case of `CC(C)[C@H](NS(=O)(=O)c1ccc(-c2cc(-c3ccc(Br)cc3)no2)cc1)C(=O)O` [Example A-25] it was 0.000518 µM; in that of `CC(C)C[C@H](NS(=O)(=O)c1ccc(-c2cc(-c3ccc(OC(F)(F)F)cc3)on2)cc1)C(=O)O` [Example C-71], 0.000203 µM.
`CC(C)C[C@H](NS(=O)(=O)c1ccc(-c2cc(-c3ccc(Br)cc3)no2)cc1)C(=O)O` [Example A-66] had a half-inhibitory concentration (IC50) of 0.00043 µM.
In the case of `CC(C)C[C@H](NS(=O)(=O)c1ccc(-c2cc(-c3ccc(F)c(F)c3)no2)cc1)C(=O)O` [Example A-84] it was 0.00069 µM; in that of `CCC(C)[C@H](NS(=O)(=O)c1ccc(-c2cc(-c3ccc(F)c(F)c3)on2)cc1)C(=O)O` (some centres unmarked) [Example C-108], 0.000525 µM; in that of `CC(C)[C@H](NS(=O)(=O)c1ccc(-c2cc(-c3ccc(C(F)(F)F)cc3)no2)cc1)C(=O)O` [Example A-21], 0.000608 µM.
As for `CCc1ccc(-c2cc(-c3ccc(S(=O)(=O)N[C@H](Cc4ccccc4)C(=O)O)cc3)no2)cc1` [Example C-123], the figure is 0.00076 µM.
As for `CC(C)[C@@H](NS(=O)(=O)c1ccc(-c2cc(-c3ccc(Cl)c(Cl)c3)on2)cc1)C(=O)O` [Example C-40], the figure is 0.000575 µM.
Take `C[C@H](NS(=O)(=O)c1ccc(-c2cc(-c3ccc(OC(F)(F)F)cc3)no2)cc1)C(=O)O` [Example A-6]: the IC50 was found to be 0.000889 µM.
In the case of `Cc1ccc(-c2cc(-c3ccc(S(=O)(=O)N[C@@H](C(=O)O)C(C)C)cc3)no2)cc1F` [Example C-38] it was 0.000245 µM; in that of `Cc1ccc(-c2cc(-c3ccc(S(=O)(=O)N[C@@H](C)C(=O)O)cc3)no2)cc1` [Example C-2], 0.000899 µM; in that of `Cc1ccc(-c2cc(-c3ccc(S(=O)(=O)N[C@H](Cc4ccccc4)C(=O)O)cc3)no2)cc1` [Example C-122], 0.000877 µM.
As for `CCC(C)[C@H](NS(=O)(=O)c1ccc(-c2cc(-c3ccc(C)c(F)c3)on2)cc1)C(=O)O` (some centres unmarked) [Example C-105], the figure is 0.000174 µM; as for `Cc1ccc(-c2cc(-c3ccc(S(=O)(=O)N[C@H](C(=O)O)C(C)C)cc3)no2)cc1F` [Example C-39], 0.000238 µM.
In the case of `CC(C)[C@H](NS(=O)(=O)c1ccc(-c2cc(-c3ccc(Br)cc3)on2)cc1)C(=O)O` [Example C-23] it was 0.000205 µM.
`Cc1ccc(-c2cc(-c3ccc(S(=O)(=O)N[C@@H](C(=O)O)C(C)C)cc3)no2)cc1` [Example C-8] had an IC50 of 0.000559 µM.
In turn, `CC(C)C[C@H](NS(=O)(=O)c1ccc(-c2cc(-c3ccc(Cl)c(F)c3)on2)cc1)C(=O)O` [Example C-82] yielded an IC50 of 0.000233 µM. Compared with the last molecule, the IC50 is about 2.4-fold lower.
As for `CC(C)C[C@H](NS(=O)(=O)c1ccc(-c2cc(-c3ccc(Br)cc3)on2)cc1)C(=O)O` [Example C-66], the figure is 0.000218 µM.
In turn, `CCC(C)[C@H](NS(=O)(=O)c1ccc(-c2cc(-c3ccc(C(F)(F)F)cc3)no2)cc1)C(=O)O` (some centres unmarked) [Example A-102] displayed a half-inhibitory concentration (IC50) of 0.000592 µM.
Molecule `CCC(C)[C@H](NS(=O)(=O)c1ccc(-c2cc(-c3ccc(F)cc3)on2)cc1)C(=O)O` (some centres unmarked) [Example C-106] returned an IC50 of 0.000781 µM.

One may read the IC50 as the midpoint of a concentration-inhibition curve. A higher IC50 goes with weaker potency.

The record behind these values is US7825146B2, “Sulfonamide derivative having isoxazole ring” (Shionogi & Co., Ltd., priority 2003, dated 2010).
